Converted amounts (≈) assume the structure as drawn. Each block holds one compound with its values, some of them ahead of it.
Columns and labels:
Format in all cases: cell-based, murine
[1] = system: LPS-stimulated RAW 264.7 cells; assay: Inhibition of LPS-induced nitric oxide production (Griess nitrite measurement); settings: LPS (100 ng/mL)-stimulated RAW 264.7 cells, 24 h, Griess reaction, mean ± SD of three replicates; for IC50: Mus musculus, RAW264.7, read-out: Inhibition of NO Production IC50
Text: (§1) Nitric oxide (NO) is derived from the oxidation of L-arginine by NO synthase (NOS) and is recognized as a mediator and regulator in biological actions, especially in inflammatory responses. In inflammation and carcinogenesis conditions, there is an increased production of NO by inducible NO synthase (iNOS). Thus, inhibitors of NO might be of therapeutic importance in preventing pathological conditions catalyzed by inflammation. Macrophages contain various chemical mediators that may be responsible for several inflammatory stages and have been expected to be an origin of inflammation. iNOS mainly exists in macrophages and can be induced by pro-inflammatory agents lipopolysaccharides (LPS). […] In this study, the inhibitory activity toward NO production of four sesquiterpenoids (1, 4, 5, and 6) and eight diterpenoids (8–15) was evaluated by measurement of nitrite/nitrate in LPS-stimulated RAW 264.7 cells. To search for the appropriate concentrations for the above assay, these 12 compounds were first tested their cytotoxic activity against the RAW 264.7 cells, and no significant cytotoxic activities were observed under all tested concentrations (Table 3).
(§2) A murine macrophage cell line RAW264.7 (BCRC No. 60001) was obtained from the Bioresources Collection and Research Center (BCRC) of the Food Industry Research and Development Institute (Hsinchu, Taiwan). Cells were maintained in Dulbecco’s Modified Eagle Medium (DMEM, Sigma, St. Louis, MO, USA) supplemented with 10% fetal bovine serum (FBS, Sigma). Cells were cultured in a humidified atmosphere with 5% CO2 at 37 °C and subcultured every three days at a dilution of 1:5 using 0.05% trypsin-0.02% EDTA in Ca^2+-, Mg^2+-free phosphate-buffered saline (DPBS).
The anti-inflammatory activity of compounds was evaluated by using a nitric oxide (NO) inhibitory activity assay. As a stable NO metabolite, production of NO was indirectly determined by Griess reaction to measure the concentration of nitrite in the culture medium. The cells were incubated with test compounds (0, 2.5, 5, 10, 20 and 40 μg/mL) in the presence of LPS (100 ng/mL) at 37 °C for 24 h. Then, cells were dispensed into 96-well plates, and 100 μL of each supernatant was reacted with an equal volume of Griess reagent (1% sulfanilamide, 0.1% naphthyl ethylenediamine dihydrochloride and 5% phosphoric acid) and incubated at room temperature for 10 min. Absorbance was then measured at 540 nm using a Micro-Reader (Molecular Devices Orleans Drive, Sunnyvale, CA, USA). A standard curve was generated, using freshly prepared 0–100 μM […] dissolved in assay buffer, to quantitate unknown nitrite in samples.
(§3) The data is expressed as means ± standard errors (SE). The IC50 values were calculated from the dose curves using a non-linear regression algorithm (SigmaPlot 8.0; SPSS Inc., Chicago, IL, USA, 2002). Statistical evaluation was carried out by one-way analysis of variance (ANOVA followed by Scheffe’s multiple range tests).

[2] = Cell viability / cytotoxicity (MTT); settings: mouse, RAW 264.7 macrophage cells, RAW 264.7 cells, 24 h with test compound in presence of 100 ng/mL LPS, mean ± SD of three replicates
Text: as §1, §2
(§4) Cells (2 × 10^5) were cultured in 96-well plate containing DMEM supplemented with 10% FBS. After 24 h of cells incubation, cells were cultured with test compounds in the presence of 100 ng/mL LPS (lipopolysaccharide) for 24 h. Untreated cells served as the control. After that, the cells were washed twice with DPBS and 100 μL of 0.5 mg/mL MTT was added to each well for further 2 h incubation at 37 °C. The medium was then discarded, and the colored crystals of produced formazan were dissolved in 100 μL dimethyl sulfoxide (DMSO). After 30 min incubation, the absorbance was measured at 570 nm on a microplate reader (Molecular Devices).
as §3

[3] = system: RAW 264.7 cells; assay: Cell viability / cytotoxicity (MTT); settings: 24 h with test compound in presence of 100 ng/mL LPS, mean ± SD of three replicates
Text: as §1, §2, §4, §3

SMILES: C=CC1(C)OC2(C)CCC3C(C)(CO)CCCC3(C)C2CC1O (centres unmarked) [Compound 13]
- IC50 [1]: > 20 µg/mL
- IC50 at 24 h [2]: > 20 µg/mL

SMILES: C=C1CCC2C(C)(C(=O)O)CCCC2(C)C1CC1OCC=C1C (centres unmarked) [Compound 14]
- IC50 [1]: > 20 µg/mL
- IC50 at 24 h [2]: > 20 µg/mL

SMILES: C=CC(C)=CCC1C(=C)CCC2C(C)(CO)CCCC12C (centres unmarked) [Compound 9, elliotinol]
- IC50 [1]: > 20 µg/mL
- IC50 at 24 h [2]: > 20 µg/mL

SMILES: CC(=O)OC(C)(C)C1CCC2(C)CCCC(C)(O)C2C1 (stereo not drawn) [Compound 4, 11-acetoxyeudesman-4β-ol]
- IC50 [1]: > 20 µg/mL
- IC50 at 24 h [2]: > 20 µg/mL

SMILES: CC(=O)OC(C)(C)C1CCC2(C)CCCC(C)(O)C2C1 (stereo not drawn) [Compound 5, 11-acetoxyeudesman-4α-ol]
- Inhibition of NO Production IC50 [1]: >20 µg/mL
- Cytotoxicity IC50 [3]: >20 µg/mL

SMILES: C=CC(=C)CCC1C(C)(O)CCC2C(C)(C=O)CCCC12C (centres unmarked) [Compound 11]
- IC50 [1]: > 20 µg/mL
- IC50 at 24 h [2]: > 20 µg/mL

Continued, in another order:

- IC50 [1]: 13.1 ± 0.55 µg/mL (≈ 42.4 µM)
SMILES: C=CC(C)(O)CCC1C(C)(O)CCC2C(C)(C)CCCC21C (centres unmarked) [Compound 15]
- IC50 at 24 h [2]: > 20 µg/mL

- IC50 [1]: > 20 µg/mL
SMILES: C=C[C@]1(C)C=C2CC[C@@H]3[C@](C)(CCC[C@@]3(C)C(=O)O)[C@H]2CC1 [Compound 8, sandaracopimaric acid]
- IC50 at 24 h [2]: > 20 µg/mL

- IC50 [1]: 65.4 ± 1.8 µg/mL (≈ 183 µM)
SMILES: COc1ccc2c(c1)c(CC(=O)O)c(C)n2C(=O)c1ccc(Cl)cc1 [indomethacin, reference compound]
- IC50 at 24 h [2]: > 100 µg/mL

- IC50 [1]: > 20 µg/mL
SMILES: Cc1ccc(C(C)C)c2c1[C@H](O)[C@@H](O)[C@@H](C)C2 [Compound 6, 2α,3β-dihydroxy-4β-methyl-6,8,10-cadinatriene]
- IC50 at 24 h [2]: > 20 µg/mL

- IC50 [1]: > 20 µg/mL
SMILES: CC1CCC2(C)CC3CCC12C(O)C3(C)C (stereo not drawn) [Compound 1, 2α-hydroxy-3,3,6α,9β-tetramethyltricyclo[4,3,2^1,4]undecane]
- IC50 at 24 h [2]: > 20 µg/mL

- IC50 [1]: 11.4 ± 0.62 µg/mL (≈ 41.1 µM)
SMILES: CC(=O)C=CC1C(C)(O)CCC2C(C)(C)CCCC21C (stereo not drawn) [Compound 10, 8α-hydroxy-15,16-bisnorlabda-11-en-13-one]
- IC50 at 24 h [2]: > 20 µg/mL

- IC50 [1]: > 20 µg/mL
SMILES: C=C1CCC2C(C)(CO)CCCC2(C)C1C=CC(C)=O (centres unmarked) [Compound 12]
- IC50 at 24 h [2]: > 20 µg/mL
